Measured values as given in patent US7018988B2, “Pharmaceutically active pyrrolidine derivatives as Bax inhibitors” (Applied Research Systems ARS Holding N.V., priority 2000, dated 2006).

Biological target: T1, Bax (Homo sapiens, UniProt Q07812)
T1 construct: endogenous in cells; host or cells: mitochondria isolated from HeLa cells
Experiment: Effect of compounds on the release of cytochrome c triggered by Bid-induced Bax activation (in vitro assay d)
Assay type: biochemical
Conditions: compound at 10 μM; mitochondria isolated from HeLa cells; 10 nM recombinant Bid
Experimental: d) Effect of Compounds according to formula I onto the Release of Cytochrome c Trig-gered by Bid-Induced Bax Activation (In Vitro Assay)
Concerning the Bid-induced activation of Bax leading to mitochondrial Cytochrome C release, it is referred to the description of Martinou et al. in The Journal of Cell Biology, Vol. 144, No. 5, Mar. 8, 1999, pages 891–901. Mitochondria isolated from HeLa cells are incubated for 15 min at 30° C. in 100 μl of KCl buffer in the presence or absence of 10 nM recombinant Bid. The various compounds (10 μM) are pre-incubated for 5 min prior to addition of Bid. Following incubation, mitochondria were centrifuged for 5 min at 13000 g at 4° C. and the supernatant is collected for cytochrome c analysis. Cytochrome c is detected by Western blotting. The cytochrome c bands are scanned and quantified using a Bio-Rad (GS-700 Imaging Densitometer).
The above set out 2 in vitro assays c) and d) involving the determination of mitochondrial cytochrome c release are based on immunochemical methods using the Western blot analysis. […]

T1 sequence (Q07812 whole entry): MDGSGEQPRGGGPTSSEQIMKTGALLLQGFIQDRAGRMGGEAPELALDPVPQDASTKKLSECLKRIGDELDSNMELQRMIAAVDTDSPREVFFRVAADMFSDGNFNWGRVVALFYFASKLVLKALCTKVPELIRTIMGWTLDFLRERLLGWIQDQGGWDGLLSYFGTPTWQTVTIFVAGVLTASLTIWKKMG

| inhibition at 10 µM | SMILES |
| --- | --- |
| ~59% | CCCCCNC(=O)N1CC(=NOC)C[C@H]1C(=O)N1CCN(Cc2ccc3c(c2)OCO3)CC1 [Example 28, (2S,4EZ)-2-{[4-(1,3-benzodioxol-5-ylmethyl)-1-piperazinyl]carbonyl}-4-(methoxyimino)-N-pentyl-1-pyrrolidinecarboxamide] |
| ~79% | CCCCCNC(=O)N1CC(=NOC)C[C@H]1C(=O)NCCO [Example 23, (2S,4EZ)-N^2-(2-hydroxyethyl)-4-(methoxyimino)-N^1-pentyl-1,2-pyrrolidinedicarboxamide] |
